The values that follow come from US9440964B2, “Pesticidal compositions and processes related thereto” (Dow AgroSciences LLC, priority 2011, dated 2016).

The test system of assay [1] is BAW (Spodoptera exigua). Put plainly: Bioassay on Beet Armyworm (BAW), 128-well diet tray. In kind it is in vivo. Particulars: for pest or weed control at 50 µg/cm2: Spodoptera exigua, 168 h, read-out: Rating BAW. As to the method:
(§1) Certain molecules disclosed in this document were tested against BAW and CEW using procedures described in the following examples. In the reporting of the results, the “BAW & CEW Rating Table” was used (See Table Section).
Bioassays on BAW (Spodoptera exigua)
(§2) Trays were covered with a clear self-adhesive cover and held at 25° C., 14:10 light-dark for five to seven days. Percent mortality was recorded for the larvae in each well; activity in the eight wells was then averaged. The results are indicated in the table entitled “Table ABC: Biological Results” (See Table Section).

Assay [2] has as its system CEW (Helicoverpa zea). Kind of assay: Bioassay on Corn Earworm (CEW), 128-well diet tray. In kind it is in vivo. Conditions: for pest or weed control at 50 µg/cm2: Helicoverpa zea, 168 h, read-out: Rating CEW. As to the method: as §1
Bioassays on CEW (Helicoverpa zea)
as §2

The mark [3] stands for this setting: percent mortality, second instar larvae, 50 μg/cm^2 on diet, five to seven days.
The mark [4] stands for this setting: percent mortality, second instar larvae, 12.5 μg/cm^2 on diet, five to seven days.

Like-named read-outs stand apart in the source and are kept apart here.

Regarding `COc1ccc(N/C(=N/C(=O)Nc2ccc(-c3ncn(-c4ccc(C(F)(F)F)cc4)n3)cc2)SCOC(=O)C(C)C)c(C)c1` [Molecule A1, (E)-((N′-(4-methoxy-2-methylphenyl)-N-((4-(1-(4-(trifluoromethyl)phenyl)-1H-1,2,4-triazol-3-yl)phenyl)carbamoyl)carbamimidoyl)thio) methyl isobutyrate], the pest or weed control at 50 µg/cm2 in assay [1] (setting [3]) and in assay [2] (setting [3]) was 50 to 100% each time.
As to `COc1ccc(N/C(=N/C(=O)Nc2ccc(-c3ncn(-c4ccc(C(F)(F)F)cc4)n3)cc2)SC)c(C)c1` [Molecule A2, (Z)-Methyl N-(4-methoxy-2-methylphenyl)-N′-((4-(1-(4-(trifluoromethyl)phenyl)-1H-1,2,4-triazol-3-yl)phenyl)carbamoyl)carbamimidothioate], the pest or weed control at 50 µg/cm2 in assay [1] (setting [3]) and in assay [2] (setting [3]) was 50 to 100% throughout.
With `CC(C)C(=O)OCS/C(=N\C(=O)Nc1ccc(-c2ncn(-c3ccc(OC(F)(F)F)cc3)n2)cc1)Nc1ccccc1C(C)C` [Molecule A5, (Z)—((N-(2-Isopropylphenyl)-N′-((4-(1-(4-(trifluoromethoxy)phenyl)-1H-1,2,4-triazol-3-yl)phenyl)carbamoyl)carbamimidoyl)thio)methyl isobutyrate], the pest or weed control at 50 µg/cm2 in assay [1] (setting [3]) and in assay [2] (setting [3]) was 50 to 100% throughout.
On to `CC(C)C(=O)OCS/C(=N\C(=O)Nc1ccc(-c2ncn(-c3ccc(OC(F)(F)C(F)(F)F)cc3)n2)cc1)Nc1ccccc1C(C)C` [Molecule A6, (Z)—((N-(2-Isopropylphenyl)-N′-((4-(1-(4-(pentafluoroethoxy)phenyl)-1H-1,2,4-triazol-3-yl)phenyl)carbamoyl)carbamimidoyl)thio)methyl isobutyrate], for which the pest or weed control at 50 µg/cm2 in assay [1] (setting [3]) and in assay [2] (setting [3]) was 50 to 100% in each case.
Take `Cc1cccc(C)c1N/C(=N/C(=O)Nc1ccc(-c2ncn(-c3ccc(C(F)(F)F)cc3)n2)cc1)SCOC(=O)CNC(=O)OCc1ccccc1` [Molecule A8, (Z)—((N-(2,6-Dimethylphenyl)-N′-((4-(1-(4-(trifluoromethyl)phenyl)-1H-1,2,4-triazol-3-yl)phenyl)carbamoyl)carbamimidoyl)thio)methyl 2-(((benzyloxy)carbonyl)amino)acetate]: the pest or weed control at 50 µg/cm2 in assay [1] and in assay [2] was 50 to 100% in each case.
As to `COc1ccc(N/C(=N/C(=O)Nc2ccc(-c3ncn(-c4ccc(OC(F)(F)F)cc4)n3)cc2)SCS[C@@H]2O[C@@H](C)[C@H](OC)[C@@H](OC)[C@H]2OC)c(C)c1` [Molecule A10, (Z)-(((2S,3R,4R,5S,6S)-3,4,5-Trimethoxy-6-methyltetrahydro-2H-pyran-2-yl)thio)methyl N-(4-methoxy-2-methylphenyl)-N′-((4-(1-(4-(trifluoromethoxy)phenyl)-1H-1,2,4-triazol-3-yl)phenyl)carbamoyl) carbamimidothioate], the pest or weed control at 50 µg/cm2 in assay [1] (setting [3]) and in assay [2] (setting [3]) was 50 to 100% throughout.
With `Cc1cccc(C)c1N/C(S)=N/C(=O)Nc1ccc(-c2ncn(-c3ccc(C(F)(F)F)cc3)n2)cc1` [Molecule A12], the pest or weed control at 50 µg/cm2 in assay [1] (setting [3]) and in assay [2] (setting [3]) was 50 to 100% each time.
For `CC(C)c1ccccc1NC(=O)NC(=O)Nc1ccc(-c2ncn(-c3ccc(OC(F)(F)F)cc3)n2)cc1` [Molecule A13, 1-(2-isopropylphenyl)-3-[[4-[1-[4-(trifluoromethoxy)phenyl]-1,2,4-triazol-3-yl]phenyl]carbamoyl]urea], the pest or weed control at 50 µg/cm2 in assay [1] (setting [3]) and in assay [2] (setting [3]) was 50 to 100% each time.
Turning to `CC(C)c1ccccc1N1C(=O)CS/C1=N\C(=O)Nc1ccc(-c2ncn(-c3ccc(OC(F)(F)F)cc3)n2)cc1` [Molecule A19, (Z)-1-(3-(2-isopropylphenyl)-4-oxothiazolidin-2-ylidene)-3-(4-(1-(4-(trifluoromethoxy)phenyl)-1H-1,2,4-triazol-3-yl)phenyl)urea], the pest or weed control at 50 µg/cm2 in assay [1] (setting [3]) and in assay [2] (setting [3]) was 50 to 100% in each case.
In the case of `CC(=O)/C(C(=O)Nc1ccc(-c2ncn(-c3ccc(OC(F)(F)F)cc3)n2)cc1)=C(/S)Nc1ccccc1C(C)C` [Molecule A20, (E)-3-hydroxy-2-((2-isopropylphenyl)carbamothioyl)-N-(4-(1-(4-(trifluoromethoxy)phenyl)-1H-1,2,4-triazol-3-yl)phenyl)but-2-enamide], the pest or weed control at 50 µg/cm2 in assay [1] (setting [3]) and in assay [2] (setting [3]) was 50 to 100% in each case.
Take `CC(C)c1ccccc1N/C(S)=C/C(=O)Nc1ccc(-c2ncn(-c3ccc(OC(F)(F)F)cc3)n2)cc1` [Molecule A21, 3-((2-isopropylphenyl)amino)-3-thioxo-N-(4-(1-(4-(trifluoromethoxy)phenyl)-1H-1,2,4-triazol-3-yl)phenyl)propanamide]: the pest or weed control at 50 µg/cm2 in assay [1] (setting [3]) and in assay [2] (setting [3]) was 50 to 100% in each case.
On to `Cc1ccccc1N/C(S)=C/C(=O)Nc1ccc(-c2ncn(-c3ccc(OC(F)(F)F)cc3)n2)cc1` [Molecule A22, 3-thioxo-3-(o-tolylamino)-N-(4-(1-(4-(trifluoromethoxy)phenyl)-1H-1,2,4-triazol-3-yl)phenyl)propanamide], for which the pest or weed control at 50 µg/cm2 in assay [1] (setting [3]) and in assay [2] (setting [3]) was 50 to 100% throughout.
As to `Cc1cccc(C)c1N/C(S)=C/C(=O)Nc1ccc(-c2ncn(-c3ccc(OC(F)(F)F)cc3)n2)cc1` [Molecule A23, 3-((2,6-dimethylphenyl)amino)-3-thioxo-N-(4-(1-(4-(trifluoromethoxy)phenyl)-1H-1,2,4-triazol-3-yl)phenyl)propanamide], the pest or weed control at 50 µg/cm2 in assay [1] (setting [3]) and in assay [2] (setting [3]) was 50 to 100% each time.
In the case of `CC(C)c1ccccc1N1C(=O)CS/C1=C\C(=O)Nc1ccc(-c2ncn(-c3ccc(OC(F)(F)F)cc3)n2)cc1` [Molecule A24, (Z)-2-(3-(2-isopropylphenyl)-4-oxothiazolidin-2-ylidene)-N-(4-(1-(4-(trifluoromethoxy)phenyl)-1H-1,2,4-triazol-3-yl)phenyl)acetamide], the pest or weed control at 50 µg/cm2 in assay [1] (setting [3]) and in assay [2] (setting [3]) was 50 to 100% in each case.
On to `Cc1ccccc1N/C(S)=C(\C#N)C(=O)Nc1ccc(-c2ncn(-c3ccc(OC(F)(F)F)cc3)n2)cc1` [Molecule A29, (Z)-2-Cyano-3-mercapto-3-(o-tolylamino)-N-(4-(1-(4-(trifluoromethoxy)phenyl)-1H-1,2,4-triazol-3-yl)phenyl)acrylamide], for which the pest or weed control at 50 µg/cm2 in assay [1] (setting [3]) lay within 0 to 50%; in assay [2] (setting [3]), 50 to 100%.
The corresponding values for `CC(C)c1ccccc1N1C(=O)CS/C1=C(/C#N)C(=O)Nc1ccc(-c2ncn(-c3ccc(OC(F)(F)F)cc3)n2)cc1` [Molecule A31, (Z)-2-Cyano-2-(3-(2-isopropylphenyl)-4-oxothiazolidin-2-ylidene)-N-(4-(1-(4-(trifluoromethoxy)phenyl)-1H-1,2,4-triazol-3-yl)phenyl)acetamide] are 50 to 100% and 50 to 100%.
The corresponding values for `Cc1cccc(C)c1N/C(O)=C/C(=O)Nc1ccc(-c2ncn(-c3ccc(OC(F)(F)F)cc3)n2)cc1` [Molecule A32, (Z)-3-(2,6-dimethylphenylamino)-3-hydroxy-I-(4-(1-(4-(trifluoromethoxy)phenyl)-1H-1,2,4-triazol-3-yl)phenyl)acrylamide] are 50 to 100% and 50 to 100%.
With `Cc1cc(C)c(N2C(=O)CS/C2=N\C(=O)Nc2ccc(-c3ncn(-c4ccc(OC(F)(F)F)cc4)n3)cc2)c(C)c1` [Molecule A36], the pest or weed control at 50 µg/cm2 in assay [1] (setting [3]) and in assay [2] (setting [3]) was 50 to 100% each time.
With `Cc1cc(C)c(N2C(=O)C(C)S/C2=N\C(=O)Nc2ccc(-c3ncn(-c4ccc(OC(F)(F)F)cc4)n3)cc2)c(C)c1` (stereo not shown) [Molecule A37], the pest or weed control at 50 µg/cm2 in assay [1] (setting [3]) and in assay [2] (setting [3]) was 50 to 100% in each case.
As for `CCC1CS/C(=N\C(=O)Nc2ccc(-c3ncn(-c4ccc(OC(F)(F)F)cc4)n3)cc2)N1c1c(C)cc(C)cc1C` (stereo not shown) [Molecule A38], the pest or weed control at 50 µg/cm2 in assay [1] (setting [3]) and in assay [2] (setting [3]) was 50 to 100% throughout.
Take `Cc1cccc(C)c1N1CC(C)CS/C1=N\C(=O)Nc1ccc(-c2ncn(-c3ccc(OC(F)(F)F)cc3)n2)cc1` (stereo not shown) [Molecule A39]: the pest or weed control at 50 µg/cm2 in assay [1] (setting [3]) and in assay [2] (setting [3]) was 50 to 100% throughout.
Take `Cc1cc(C)c(N2/C(=N/C(=O)Nc3ccc(-c4ncn(-c5ccc(OC(F)(F)F)cc5)n4)cc3)SCC2C)c(C)c1` (stereo not shown) [Molecule A40]: the “Rating BAW (**Tested at 12.5 μg/cm^2)” value in assay [1] (setting [4]) is on record as “A** (50-100)”. In assay [2] (setting [4]), the “Rating CEW (**Tested at 12.5 μg/cm^2)” value is “A** (50-100)”.
As for `Cc1cc(C)c(N2CC(C)CS/C2=N\C(=O)Nc2ccc(-c3ncn(-c4ccc(OC(F)(F)F)cc4)n3)cc2)c(C)c1` (stereo not shown) [Molecule A41], the pest or weed control at 50 µg/cm2 in assay [1] (setting [3]) and in assay [2] (setting [3]) was 50 to 100% throughout.
As to `CC(C)c1ccccc1N/C(S)=N/C(=O)Nc1ccc(-c2ncn(-c3ccc(OC(F)(F)F)cc3)n2)cc1` [Molecule A48], the pest or weed control at 50 µg/cm2 in assay [1] (setting [3]) and in assay [2] (setting [3]) was 50 to 100% throughout.
Turning to `Cc1cc(C)c(N/C(S)=N/C(=O)Nc2ccc(-c3ncn(-c4ccc(OC(F)(F)F)cc4)n3)cc2)c(C)c1` [Molecule A49], the pest or weed control at 50 µg/cm2 in assay [1] (setting [3]) and in assay [2] (setting [3]) was 50 to 100% throughout.
In the case of `COc1cc(C)c(N/C(S)=N/C(=O)Nc2ccc(-c3ncn(-c4ccc(OC(F)(F)F)cc4)n3)cc2)c(C)c1` [Molecule A50], the pest or weed control at 50 µg/cm2 in assay [1] (setting [3]) and in assay [2] (setting [3]) was 50 to 100% each time.
